From ChEMBL document CHEMBL1201862, “PubChem BioAssay data set” (2004)
Each block holds one molecule with its values, some of them ahead of it. The source made the active and inactive calls. For most assays here, no stated cut-off is given here; in the data, actives have a measured EC50 and inactives only a lower limit.

Legend:
[1] = molecular target: Luciferin 4-monooxygenase (Photinus pyralis, UniProt P08659); assay: inhibition of purified Photinus pyralis luciferase – biochemical, luminescence, dose response (AID 1891)
[2] = Luminescence Cell-Based Dose Confirmation HTS to Identify Inhibitors of Platelet Dense Granule Release. [Related pubchem assays: 1663 (Primary HTS), 1678 (Summary of Project)]; assay type: functional
Cytochrome P450 1A2 = molecular target: T1, Cytochrome P450 1A2 (Homo sapiens, UniProt P05177);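 further: PubChem cytochrome P450 panel assay, CYP1A2 panel member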
T1 sequence (P05177 whole entry): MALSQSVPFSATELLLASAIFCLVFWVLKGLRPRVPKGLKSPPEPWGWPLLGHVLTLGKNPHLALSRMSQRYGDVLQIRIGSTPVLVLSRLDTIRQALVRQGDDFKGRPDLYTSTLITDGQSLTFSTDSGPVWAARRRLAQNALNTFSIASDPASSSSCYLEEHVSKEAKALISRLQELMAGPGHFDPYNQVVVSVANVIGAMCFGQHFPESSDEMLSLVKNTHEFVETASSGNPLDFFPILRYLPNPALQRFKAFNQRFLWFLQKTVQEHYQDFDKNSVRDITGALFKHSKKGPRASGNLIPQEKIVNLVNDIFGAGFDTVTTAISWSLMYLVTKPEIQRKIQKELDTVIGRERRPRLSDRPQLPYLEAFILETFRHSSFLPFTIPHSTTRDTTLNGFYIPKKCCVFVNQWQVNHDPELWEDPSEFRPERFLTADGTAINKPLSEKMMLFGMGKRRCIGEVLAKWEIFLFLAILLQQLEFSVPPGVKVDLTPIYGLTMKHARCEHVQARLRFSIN

[3] = molecular target: T2, RNA-binding protein pos-1 (Caenorhabditis elegans, UniProt G5EF15); assay: disruptors of C. elegans POS-1 RNA interaction – biochemical, fluorescence polarization, dose response (AID 1964);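 further: purified POS-1 fused to maltose binding protein made in E. coli; potency of compounds blocking POS-1 binding to fluorescent RNA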
T2 sequence (G5EF15 whole entry): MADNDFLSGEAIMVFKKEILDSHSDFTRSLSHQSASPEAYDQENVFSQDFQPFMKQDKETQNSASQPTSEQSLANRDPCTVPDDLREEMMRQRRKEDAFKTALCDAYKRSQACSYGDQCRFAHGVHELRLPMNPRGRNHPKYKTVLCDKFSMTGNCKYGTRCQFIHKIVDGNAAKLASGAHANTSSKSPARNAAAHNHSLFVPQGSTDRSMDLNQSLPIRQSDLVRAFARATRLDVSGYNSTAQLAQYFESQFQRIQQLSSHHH

[4] = molecular target: T3, Zinc finger protein mex-5 (Caenorhabditis elegans, UniProt Q9XUB2); assay: potency of MEX-5 RNA-binding blockers – biochemical, C. elegans, fluorescence polarization, dose response (AID 1960)
T3 sequence (Q9XUB2 whole entry): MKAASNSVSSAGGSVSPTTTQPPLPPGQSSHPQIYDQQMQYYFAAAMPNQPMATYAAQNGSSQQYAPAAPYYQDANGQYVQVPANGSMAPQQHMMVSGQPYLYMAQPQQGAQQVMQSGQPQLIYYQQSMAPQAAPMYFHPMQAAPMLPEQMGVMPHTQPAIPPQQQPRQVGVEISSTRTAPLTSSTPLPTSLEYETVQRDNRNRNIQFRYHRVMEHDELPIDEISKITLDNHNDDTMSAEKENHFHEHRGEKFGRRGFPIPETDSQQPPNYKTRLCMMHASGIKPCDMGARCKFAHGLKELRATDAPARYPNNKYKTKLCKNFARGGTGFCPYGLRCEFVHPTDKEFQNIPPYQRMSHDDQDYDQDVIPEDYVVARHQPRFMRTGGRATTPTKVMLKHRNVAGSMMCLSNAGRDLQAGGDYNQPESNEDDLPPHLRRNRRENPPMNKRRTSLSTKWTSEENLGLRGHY

Cytochrome P450 2C9 = Cytochrome P450 2C9 (Homo sapiens, UniProt P11712)
Large T antigen = Large T antigen (Simian virus 40, UniProt P03070); assay type: functional, Betapolyomavirus macacae;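 further: Confirmatory-stage PubChem screen for compounds that inhibit SV40 T antigen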
INS1 = assay: INS-1E survival protection against cytokine death – cell-based, luminescence, retest, dose response (AID 449756); assay type: functional; conditions: Rattus norvegicus;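 further: cell death triggered by IL-1 beta plus TNF-alpha plus IFN-gamma mixture; protective hits raise ATP signal compared with cytokine alone wells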
[5] = molecular target: T4, Corticotropin-releasing factor receptor 2/Corticotropin-releasing factor-binding protein (Homo sapiens, UniProt P24387+Q13324); assay: activators of CRF receptor 2 with binding protein – uHTS hits, confirmation (AID 602473); assay type: functional; conditions: read-out: EC50_Mean
T4 sequence (Q13324 whole entry): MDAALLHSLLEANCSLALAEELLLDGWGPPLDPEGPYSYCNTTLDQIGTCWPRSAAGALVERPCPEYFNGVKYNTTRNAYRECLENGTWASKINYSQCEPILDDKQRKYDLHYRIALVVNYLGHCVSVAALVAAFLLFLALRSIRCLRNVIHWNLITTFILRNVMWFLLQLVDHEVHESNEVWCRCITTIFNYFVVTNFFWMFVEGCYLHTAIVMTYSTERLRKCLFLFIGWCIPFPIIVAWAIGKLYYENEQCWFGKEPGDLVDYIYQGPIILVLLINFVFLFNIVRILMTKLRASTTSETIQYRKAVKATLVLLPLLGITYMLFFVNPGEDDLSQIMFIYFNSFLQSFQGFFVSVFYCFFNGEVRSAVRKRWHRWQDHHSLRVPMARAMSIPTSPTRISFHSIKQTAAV
T4 sequence (P24387 whole entry): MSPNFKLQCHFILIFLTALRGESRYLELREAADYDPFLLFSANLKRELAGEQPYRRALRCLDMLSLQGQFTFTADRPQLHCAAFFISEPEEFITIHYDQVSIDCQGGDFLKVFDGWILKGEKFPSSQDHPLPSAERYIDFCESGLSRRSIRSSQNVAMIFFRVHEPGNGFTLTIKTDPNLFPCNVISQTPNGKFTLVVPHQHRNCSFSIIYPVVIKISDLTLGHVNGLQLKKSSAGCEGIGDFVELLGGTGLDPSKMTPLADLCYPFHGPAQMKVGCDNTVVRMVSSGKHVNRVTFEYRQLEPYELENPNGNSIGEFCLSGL

Chain of Cytochrome P450 2C9 (P11712 whole entry): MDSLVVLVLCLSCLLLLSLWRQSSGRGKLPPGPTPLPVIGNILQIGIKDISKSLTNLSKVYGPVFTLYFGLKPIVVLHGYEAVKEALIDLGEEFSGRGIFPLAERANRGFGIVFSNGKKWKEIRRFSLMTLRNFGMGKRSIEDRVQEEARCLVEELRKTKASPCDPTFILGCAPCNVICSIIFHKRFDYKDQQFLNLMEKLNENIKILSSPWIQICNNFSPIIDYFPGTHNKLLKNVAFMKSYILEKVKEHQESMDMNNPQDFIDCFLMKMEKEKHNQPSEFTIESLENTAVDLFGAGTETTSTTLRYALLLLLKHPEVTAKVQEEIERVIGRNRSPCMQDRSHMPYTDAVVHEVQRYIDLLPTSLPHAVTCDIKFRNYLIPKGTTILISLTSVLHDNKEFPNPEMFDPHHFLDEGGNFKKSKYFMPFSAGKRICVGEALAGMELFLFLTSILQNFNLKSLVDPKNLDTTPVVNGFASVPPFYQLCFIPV
Chain of Luciferin 4-monooxygenase (P08659 whole entry): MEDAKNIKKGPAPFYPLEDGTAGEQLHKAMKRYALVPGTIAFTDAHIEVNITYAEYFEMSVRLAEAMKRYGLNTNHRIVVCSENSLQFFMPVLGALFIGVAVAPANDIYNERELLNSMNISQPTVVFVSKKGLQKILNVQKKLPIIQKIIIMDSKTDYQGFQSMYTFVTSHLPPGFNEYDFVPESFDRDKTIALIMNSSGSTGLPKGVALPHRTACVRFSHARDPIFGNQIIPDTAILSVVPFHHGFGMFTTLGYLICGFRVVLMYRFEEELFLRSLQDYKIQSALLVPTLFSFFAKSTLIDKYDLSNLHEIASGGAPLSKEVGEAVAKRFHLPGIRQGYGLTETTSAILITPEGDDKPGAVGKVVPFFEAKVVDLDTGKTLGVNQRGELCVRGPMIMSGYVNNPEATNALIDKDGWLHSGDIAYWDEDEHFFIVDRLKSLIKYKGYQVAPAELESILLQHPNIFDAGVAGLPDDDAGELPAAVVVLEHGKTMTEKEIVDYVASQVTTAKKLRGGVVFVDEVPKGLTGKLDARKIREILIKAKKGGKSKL
Chain of Large T antigen (P03070 whole entry): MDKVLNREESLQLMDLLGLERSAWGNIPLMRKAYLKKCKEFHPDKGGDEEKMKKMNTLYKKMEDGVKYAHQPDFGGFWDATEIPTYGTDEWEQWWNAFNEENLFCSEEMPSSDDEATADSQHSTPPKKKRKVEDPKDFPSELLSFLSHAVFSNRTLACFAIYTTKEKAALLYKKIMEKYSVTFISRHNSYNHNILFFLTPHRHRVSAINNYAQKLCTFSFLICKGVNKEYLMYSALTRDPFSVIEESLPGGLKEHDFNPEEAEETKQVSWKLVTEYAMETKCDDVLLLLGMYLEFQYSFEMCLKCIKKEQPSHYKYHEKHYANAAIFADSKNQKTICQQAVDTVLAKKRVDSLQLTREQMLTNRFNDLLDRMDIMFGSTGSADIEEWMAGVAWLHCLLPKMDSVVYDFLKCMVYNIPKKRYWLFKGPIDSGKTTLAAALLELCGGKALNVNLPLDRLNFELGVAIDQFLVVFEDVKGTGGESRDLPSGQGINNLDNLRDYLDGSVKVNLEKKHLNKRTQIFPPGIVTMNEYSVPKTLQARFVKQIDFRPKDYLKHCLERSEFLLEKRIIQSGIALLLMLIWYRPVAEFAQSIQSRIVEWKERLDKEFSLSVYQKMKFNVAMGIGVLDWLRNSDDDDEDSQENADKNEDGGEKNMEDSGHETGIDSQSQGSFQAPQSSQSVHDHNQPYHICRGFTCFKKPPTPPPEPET

Compound: Cn1c(=O)c2c(nc(CN3CCOCC3)n2CC(=O)c2ccccc2)n(C)c1=O
- EC50 [1]: > 112 µM (not active)
- EC50 [2]: 39 µM (active)

Compound: CC(=O)c1c(O)c(C)c(O)c(Cc2c(O)c3c(c(C(=O)/C=C\c4ccccc4)c2O)OC(C)(C)C=C3)c1O
- AC50 (Cytochrome P450 1A2): 31.6 µM (inconclusive)

Compound: COc1cc(Cl)ccc1OCc1cc(C(=O)N2C[C@]3(C)C[C@H]2CC(C)(C)C3)no1
- EC50 [1]: 27 µM (active)
- EC50 [2]: > 112 µM (not active)

Compound: CNc1cnn(-c2ccccc2)c(=O)c1Cl
- AC50 (Cytochrome P450 1A2): 28.2 µM (inconclusive)
- AC50 (Cytochrome P450 2C9): 1 µM (inconclusive)

Compound: O=C(C(Cc1ccccc1)n1cccc1)N1CCN(c2ncccn2)CC1 (stereo not given)
- EC50 [1]: > 112 µM (not active)
- EC50 [2]: > 112 µM (not active)

Compound: Cc1ccc(-c2sc(-c3ccccc3)nc2CC(=O)Nc2ccccc2F)cc1
- AC50 (INS1): 2.27 µM (active)
- EC50 [5]: > 53 µM (inactive)

Compound: Cc1c(Cl)cccc1NC(=O)Nc1ccc(C(=O)N2CCCC2)cc1
- EC50 [1]: 1.94 µM (active)
- EC50 [2]: 30.4 µM (active)

Compound: CCN1/C(=C2\SC(=S)N(Cc3ccccc3)C2=O)Sc2ccccc21
- EC50 [5]: > 53 µM (inactive)

More lines, now with the values ahead:

- EC50 [3]: > 300 µM (not active)
- EC50 [4]: > 300 µM (not active)
Compound: O=C(OCC(=O)c1ccco1)c1ccc2ncsc2c1

- EC50 [3]: > 300 µM (not active)
- EC50 [4]: > 300 µM (not active)
Compound: Cc1c(C(=O)O)cccc1-n1c(C)cc(C=O)c1C

- IC50 (Large T antigen): 48.6 µM (active)
Compound: Cc1ccc(S(=O)(=O)CCC(=O)Oc2ccc3c(C)cc(=O)oc3c2)cc1

- AC50 (Cytochrome P450 1A2): 3.16 µM (inconclusive)
- AC50 (Cytochrome P450 2C9): 12.6 µM (inconclusive)
Compound: CCN1CCc2nc(NC(=O)c3ccc4c(c3)OCCO4)sc2C1

- AC50 (Cytochrome P450 1A2): 15.8 µM (inconclusive)
- AC50 (Cytochrome P450 2C9): 3.16 µM (inconclusive)
Compound: CC(C)CCN1C(=O)c2ccc(-c3nc4ccccc4c(=O)o3)cc2C1=O

- AC50 (Cytochrome P450 1A2): 12.6 µM (inconclusive)
Compound: c1ccc(-c2cccc(N3CC4(CCNCC4)C3)c2)cc1

- IC50 (Large T antigen): 53.8 µM (active)
Compound: COc1cc(SC)ccc1C(=O)N1CCN(Cc2ccccc2)CC1

- EC50 [5]: > 53 µM (inactive)
Compound: COc1ccc(NC(=O)CN(C)C(=O)CSc2ccc3c(c2)OCCO3)cc1

- EC50 [3]: > 300 µM (not active)
- EC50 [4]: > 300 µM (not active)
Compound: Cc1ccc(S(=O)(=O)N(CCCN2CCCC2=O)Cc2cc3c(C)ccc(C)c3[nH]c2=O)cc1

- EC50 [3]: 67.9 µM (active)
- EC50 [4]: > 300 µM (not active)
Compound: COc1ccc(NC(=O)CN2CCC(NC(=O)C3CCCCC3)CC2)c([N+](=O)[O-])c1
